Here are results for seven compounds from US9108944B2, “Androgen receptor modulators and uses thereof” (ARAGON PHARMACEUTICALS, INC., priority 2010, dated 2015).

Experiment [1] has as its target T1, AR-VP16 (Homo sapiens, UniProt P10275).
T1 sequence (P10275 560-920 limits assumed): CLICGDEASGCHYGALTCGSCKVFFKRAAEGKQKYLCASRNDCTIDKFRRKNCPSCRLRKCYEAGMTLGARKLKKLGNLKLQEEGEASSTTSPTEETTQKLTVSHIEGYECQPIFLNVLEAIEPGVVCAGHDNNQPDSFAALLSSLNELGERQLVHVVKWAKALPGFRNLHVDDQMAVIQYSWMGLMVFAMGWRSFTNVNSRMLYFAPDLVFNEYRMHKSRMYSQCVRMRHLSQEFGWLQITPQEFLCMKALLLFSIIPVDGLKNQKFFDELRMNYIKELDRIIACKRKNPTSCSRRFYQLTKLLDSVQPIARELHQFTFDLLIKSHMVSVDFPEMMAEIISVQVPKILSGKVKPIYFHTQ
Put plainly: AR-VP16 DNA Binding Assay, agonist mode (HepG2 cells). Format: cell-based. Conditions: Emax >20x DMSO control = agonist.

The target of experiment [2] is T1, AR-VP16. Put plainly: AR-VP16 DNA Binding Assay, antagonist mode (HepG2 cells, 0.1 nM R1881). The format is cell-based. The method, boiled down: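 HepG2 cells transiently transfected with AR-VP16 (Lipofectin), incubated overnight, then treated with compound in RPMI with charcoal-stripped serum. Antagonist mode adds R1881 at 0.1 nM final. Cells lysed after 48 h incubation for read-out.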

For `N#Cc1ncc(N2C(=O)C3(CCC3)N(c3cccc(F)c3F)C2=S)cc1C(F)(F)F` [Compound 72, 5-(5-(2,3-Difluorophenyl)-8-oxo-6-thioxo-5,7-diazaspiro[3.4]octan-7-yl)-3-(trifluoromethyl)picolinonitrile], on AR-VP16 [1], the “ARVP16 DNA Binding Assay (Agonist mode): Agonist?” value (shortened to “ARVP16 DNA Binding Assay”) is given as “Yes (Agonist defined as a compound whose Emax in the ARVP16 DNA Binding Assay (Agonist mode) is >20x DMSO control)”. On AR-VP16 [2], the IC50 was less than 1000 nM.
As for `Cc1cc(N2C(=O)C3(CCC3)N(c3ccc(C(=O)Nc4cccc(Cl)c4)c(F)c3)C2=S)cnc1C#N` [Compound 295, N-(3-Chlorophenyl)-4-(7-(6-cyano-5-methylpyridin-3-yl)-8-oxo-6-thioxo-5,7-diazaspiro[3.4]octan-5-yl)-2-fluorobenzamide], the “ARVP16 DNA Binding Assay” value at AR-VP16 [1] was “No (Agonist defined as a compound whose Emax in the ARVP16 DNA Binding Assay (Agonist mode) is >20x DMSO control)”. In addition, the IC50 on AR-VP16 [2] was less than 1000 nM.
Taken in the same sequence, the figures for `Cc1ccc(N2C(=S)N(c3cnc(C#N)c(C(F)(F)F)c3)C(=O)C23CCC3)cc1F` [Compound 49, 5-(5-(3-Fluoro-4-methylphenyl)-8-oxo-6-thioxo-5,7-diazaspiro[3.4]octan-7-yl)-3-(trifluoromethyl)picolinonitrile] were “No (Agonist defined as a compound whose Emax in the ARVP16 DNA Binding Assay (Agonist mode) is >20x DMSO control)” and less than 1000 nM.
Regarding `CNC(=O)c1ccc(N2C(=S)N(c3cnc(C#N)c(C)c3)C(=O)C23CCCC3)cc1F` [Compound 6, 4-(3-(6-Cyano-5-methylpyridin-3-yl)-4-oxo-2-thioxo-1,3-diazaspiro[4.4]nonan-1-yl)-2-fluoro-N-methylbenzamide], the “ARVP16 DNA Binding Assay” value on AR-VP16 [1] is reported as “No (Agonist defined as a compound whose Emax in the ARVP16 DNA Binding Assay (Agonist mode) is >20x DMSO control)”. This compound showed an IC50 on AR-VP16 [2] of less than 1000 nM.
For `O=C1N(c2ccc3nnc(C(F)(F)F)n3n2)C(=S)N(c2ccc(OCCc3ccccn3)cc2)C12CCC2` [Compound 155, 5-(4-(2-(Pyridin-2-yl)ethoxy)phenyl)-6-thioxo-7-(3-(trifluoromethyl)-[1,2,4]triazolo[4,3-b]pyridazin-6-yl)-5,7-diazaspiro[3.4]octan-8-one], in that order: “No (Agonist defined as a compound whose Emax in the ARVP16 DNA Binding Assay (Agonist mode) is >20x DMSO control)” and more than 1000 nM.
With `Cc1ccc(N2C(=S)N(c3cnc(-c4cccnc4)c(C(F)(F)F)c3)C(=O)C23CCC3)cc1` [Compound 61, 6-Thioxo-5-(p-tolyl)-7-(3-(trifluoromethyl)-[2,3′-bipyridin]-5-yl)-5,7-diazaspiro[3.4]octan-8-one], the “ARVP16 DNA Binding Assay” value at AR-VP16 [1] is reported as “No (Agonist defined as a compound whose Emax in the ARVP16 DNA Binding Assay (Agonist mode) is >20x DMSO control)”. At AR-VP16 [2], the IC50 is more than 1000 nM.
Taken in the same sequence, the figures for `Cc1cc(N2C(=O)C3(CCC3)N(c3ccc(C(=O)NCCCN4CCCC4)c(F)c3)C2=S)cnc1C#N` [Compound 275, 4-(7-(6-Cyano-5-methylpyridin-3-yl)-8-oxo-6-thioxo-5,7-diazaspiro[3.4]octan-5-yl)-2-fluoro-N-(3-(pyrrolidin-1-yl)propyl)benzamide] were “No (Agonist defined as a compound whose Emax in the ARVP16 DNA Binding Assay (Agonist mode) is >20x DMSO control)” and more than 1000 nM.

The term IC50 denotes the concentration that gives 50% inhibition. Higher therefore signals weaker potency.
